Reference: ChEMBL document CHEMBL1201862, “PubChem BioAssay data set” (2004)
The source made the active and inactive calls.

Columns and labels:
[1] = target: T1, Histone-lysine N-methyltransferase NSD2 (Homo sapiens, UniProt O96028); assay type: biochemical
T1 sequence (O96028 whole entry): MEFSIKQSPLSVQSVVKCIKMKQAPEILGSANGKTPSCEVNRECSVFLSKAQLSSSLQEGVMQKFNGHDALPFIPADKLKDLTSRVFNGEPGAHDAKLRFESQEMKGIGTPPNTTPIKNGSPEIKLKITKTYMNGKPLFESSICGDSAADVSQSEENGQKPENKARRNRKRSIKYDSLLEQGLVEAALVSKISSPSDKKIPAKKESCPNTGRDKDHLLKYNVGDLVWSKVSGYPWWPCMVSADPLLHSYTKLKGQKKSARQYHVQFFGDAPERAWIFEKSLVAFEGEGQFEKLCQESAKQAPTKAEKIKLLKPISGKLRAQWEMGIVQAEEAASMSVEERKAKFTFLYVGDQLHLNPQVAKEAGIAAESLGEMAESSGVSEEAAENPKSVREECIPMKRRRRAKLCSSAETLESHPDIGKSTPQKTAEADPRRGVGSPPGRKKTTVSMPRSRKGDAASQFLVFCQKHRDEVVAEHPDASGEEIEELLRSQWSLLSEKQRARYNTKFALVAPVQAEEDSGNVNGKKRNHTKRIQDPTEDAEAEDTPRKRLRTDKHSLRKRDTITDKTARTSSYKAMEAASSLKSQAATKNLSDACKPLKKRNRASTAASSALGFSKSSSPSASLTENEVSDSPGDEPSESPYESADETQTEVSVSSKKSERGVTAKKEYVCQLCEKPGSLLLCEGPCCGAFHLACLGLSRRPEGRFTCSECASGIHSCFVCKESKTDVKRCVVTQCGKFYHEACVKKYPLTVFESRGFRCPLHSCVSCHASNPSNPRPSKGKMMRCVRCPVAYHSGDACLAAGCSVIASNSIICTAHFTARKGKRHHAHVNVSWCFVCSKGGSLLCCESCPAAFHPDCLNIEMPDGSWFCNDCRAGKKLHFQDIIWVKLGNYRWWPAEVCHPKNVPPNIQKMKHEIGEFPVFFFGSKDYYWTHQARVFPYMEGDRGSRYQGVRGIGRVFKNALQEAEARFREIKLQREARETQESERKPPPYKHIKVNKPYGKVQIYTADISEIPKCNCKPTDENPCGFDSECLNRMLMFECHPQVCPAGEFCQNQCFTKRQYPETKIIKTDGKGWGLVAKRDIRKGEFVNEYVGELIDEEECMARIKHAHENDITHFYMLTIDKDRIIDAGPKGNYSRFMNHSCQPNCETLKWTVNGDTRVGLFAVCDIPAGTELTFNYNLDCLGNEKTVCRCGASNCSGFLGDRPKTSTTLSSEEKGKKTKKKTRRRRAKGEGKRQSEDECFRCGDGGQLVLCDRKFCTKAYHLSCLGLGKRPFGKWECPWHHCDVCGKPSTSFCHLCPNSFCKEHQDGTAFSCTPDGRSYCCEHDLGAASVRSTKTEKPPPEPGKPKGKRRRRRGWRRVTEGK

[2] = target: T2, Endoribonuclease toxin MazF (Escherichia coli K-12, UniProt P0AE70); experiment: substrate-only fluorescence increase artefacts – biochemical, single-stranded RNase substrate, counter-screen for MazEF activator project, dose response (AID 588502); assay type: functional
T2 sequence (P0AE70 whole entry): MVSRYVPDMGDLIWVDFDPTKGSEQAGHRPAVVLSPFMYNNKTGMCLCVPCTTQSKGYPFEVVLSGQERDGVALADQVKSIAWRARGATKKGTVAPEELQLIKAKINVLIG

[3] = target: T3, Mannose-6-phosphate isomerase (Homo sapiens, UniProt P34949); experiment: MPI inhibition at elevated mannose 6-phosphate – biochemical, fluorescence intensity, high mannose 6-phosphate, primary screen (AID 1220)
T3 sequence (P34949 whole entry): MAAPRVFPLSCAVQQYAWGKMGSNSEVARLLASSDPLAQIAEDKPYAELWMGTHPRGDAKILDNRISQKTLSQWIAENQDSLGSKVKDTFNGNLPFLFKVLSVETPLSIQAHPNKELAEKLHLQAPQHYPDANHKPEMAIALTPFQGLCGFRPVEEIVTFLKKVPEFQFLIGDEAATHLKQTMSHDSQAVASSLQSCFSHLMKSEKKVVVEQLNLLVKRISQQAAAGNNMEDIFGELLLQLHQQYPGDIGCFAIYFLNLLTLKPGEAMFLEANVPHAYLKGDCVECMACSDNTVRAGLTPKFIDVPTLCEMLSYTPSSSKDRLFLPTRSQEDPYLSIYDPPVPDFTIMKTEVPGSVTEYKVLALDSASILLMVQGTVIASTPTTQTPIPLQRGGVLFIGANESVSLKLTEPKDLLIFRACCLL

[4] = target: T2, Endoribonuclease toxin MazF; experiment: activation of MazEF endoribonuclease cleavage – biochemical, fluorescence, single-stranded RNA substrate, uHTS hits, dose response (AID 588481); assay type: functional
[5] = target: E3 ubiquitin-protein ligase Mdm2 (Homo sapiens, UniProt Q00987); experiment: MDM2-luc reporter signal enhancers, multi-concentration potency testing, MDM2 ubiquitin-protein ligase inhibitor program, whole-cell format, luminescence detection, 384-well microplate (AID 1394); assay type: functional;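 note: MDM2 E3 inhibitors raise luminescence so EC50 is for signal enhancement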
[6] = target: T4, COUP transcription factor 2 (Homo sapiens, UniProt P24468); experiment: Luminescence-based cell-based high throughput dose response assay to identify inhibitors of COUP-TFII (NR2F2).; assay type: functional;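 note: HEK293 cells transiently cotransfected with COUP-TFII expression vector and reporter; luciferase reporter luminescence driven by COUP-TFII from the pX2-168 reporter plasmid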
T4 sequence (P24468 whole entry): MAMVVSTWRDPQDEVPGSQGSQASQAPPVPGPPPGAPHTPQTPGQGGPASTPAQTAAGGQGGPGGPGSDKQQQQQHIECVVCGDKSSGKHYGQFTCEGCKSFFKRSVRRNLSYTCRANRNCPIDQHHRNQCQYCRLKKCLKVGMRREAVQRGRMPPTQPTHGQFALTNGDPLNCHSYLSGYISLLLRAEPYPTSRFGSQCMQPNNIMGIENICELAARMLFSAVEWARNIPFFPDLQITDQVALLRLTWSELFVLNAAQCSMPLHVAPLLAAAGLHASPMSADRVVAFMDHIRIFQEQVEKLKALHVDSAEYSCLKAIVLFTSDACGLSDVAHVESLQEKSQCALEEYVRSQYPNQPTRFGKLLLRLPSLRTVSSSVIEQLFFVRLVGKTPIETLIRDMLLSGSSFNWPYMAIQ

[7] = target: Mitogen-activated protein kinase 10 (Homo sapiens, UniProt P53779); experiment: Dose response biochemical screening assay for inhibitors of c-Jun N-Terminal Kinase 3 (JNK3). [Related pubchem assays: 746 ]
[8] = target: Cytochrome P450 2C9 (Homo sapiens, UniProt P11712)
[9] = P. falciparum Dd2 growth inhibitors, dose response, SYBR Green, cherry-picked samples (AID 1159567); assay type: functional, cell-based
[10] = Dd2 parasite growth inhibition in erythrocytes – SYBR Green, dry powder samples, set 9, dose response (AID 1159568); assay type: functional, cell-based
[11] = toxicity to human hepatoma HepG2 cells – cell-based, cherry-picked samples, cytotoxicity control, dose response (AID 1159577); assay type: functional
[12] = target: FAD-linked sulfhydryl oxidase ALR (Homo sapiens, UniProt P55789); experiment: ALR-catalysed DTT oxidation blockers – biochemical, H2O2 detection, luminescence, cherry-pick, dose response (AID 493248)
[13] = Luminescence Cell-Based Dose Response HTS to Identify Activators of Luciferase Translation or Activity in H4 […] Cells. [Related pubchem assays: 1829 (Project Summary), 1814 (Primary HTS)]; assay type: functional
[14] = tested on: H4; experiment: Luminescence Cell-Based Dose Response HTS to Identify Activators of 5'UTR Stem-Loop Driven Prion Protein mRNA Translation in H4 Neuroglioblastoma Cells. [Related pubchem assays: 1829 (Project Summary), 1814 (Primary HTS)]; assay type: functional; details: Homo sapiens
[15] = Luminescence Cell-Based Dose Confirmation HTS to Identify Activators of 5'UTR Stem-Loop Driven Alpha-Synuclein mRNA Translation in H4 Neuroglioblastoma Cells. [Related pubchem assays: 1829 (Project Summary), 1814 (Primary HTS)]; assay type: functional

Cytochrome P450 2C9, sequence (P11712 whole entry): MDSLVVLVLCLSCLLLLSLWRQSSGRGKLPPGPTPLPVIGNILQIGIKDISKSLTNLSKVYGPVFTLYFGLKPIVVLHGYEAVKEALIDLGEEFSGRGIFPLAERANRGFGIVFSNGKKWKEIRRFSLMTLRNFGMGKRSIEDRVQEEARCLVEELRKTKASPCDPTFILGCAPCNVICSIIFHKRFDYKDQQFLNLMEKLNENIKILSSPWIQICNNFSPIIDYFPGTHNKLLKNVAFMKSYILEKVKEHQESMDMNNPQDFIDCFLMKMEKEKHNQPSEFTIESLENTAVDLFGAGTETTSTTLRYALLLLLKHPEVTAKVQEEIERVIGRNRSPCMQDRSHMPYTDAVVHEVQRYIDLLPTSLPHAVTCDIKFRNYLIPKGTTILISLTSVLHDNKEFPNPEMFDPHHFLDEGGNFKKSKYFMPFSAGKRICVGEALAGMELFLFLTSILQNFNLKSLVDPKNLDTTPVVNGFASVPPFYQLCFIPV
FAD-linked sulfhydryl oxidase ALR, sequence (P55789 whole entry): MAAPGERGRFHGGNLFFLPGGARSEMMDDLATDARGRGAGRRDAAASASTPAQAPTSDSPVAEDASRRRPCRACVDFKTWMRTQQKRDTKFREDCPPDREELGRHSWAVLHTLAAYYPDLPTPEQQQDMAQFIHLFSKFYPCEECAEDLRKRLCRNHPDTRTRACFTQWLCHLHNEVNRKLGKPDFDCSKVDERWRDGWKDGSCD
Mitogen-activated protein kinase 10, sequence (P53779 whole entry): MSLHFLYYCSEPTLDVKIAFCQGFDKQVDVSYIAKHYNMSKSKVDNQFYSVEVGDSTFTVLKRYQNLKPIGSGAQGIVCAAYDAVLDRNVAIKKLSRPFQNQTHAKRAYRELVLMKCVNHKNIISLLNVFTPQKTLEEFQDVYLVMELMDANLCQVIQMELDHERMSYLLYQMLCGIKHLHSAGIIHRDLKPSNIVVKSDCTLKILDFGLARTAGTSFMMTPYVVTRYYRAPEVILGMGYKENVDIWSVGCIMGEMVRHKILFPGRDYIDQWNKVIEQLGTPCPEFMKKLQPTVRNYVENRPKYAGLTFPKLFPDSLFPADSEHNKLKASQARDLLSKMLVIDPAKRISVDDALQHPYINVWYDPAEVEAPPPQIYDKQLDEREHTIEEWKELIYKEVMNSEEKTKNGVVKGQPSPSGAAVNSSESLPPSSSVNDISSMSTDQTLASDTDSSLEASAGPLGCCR
E3 ubiquitin-protein ligase Mdm2, sequence (Q00987 whole entry): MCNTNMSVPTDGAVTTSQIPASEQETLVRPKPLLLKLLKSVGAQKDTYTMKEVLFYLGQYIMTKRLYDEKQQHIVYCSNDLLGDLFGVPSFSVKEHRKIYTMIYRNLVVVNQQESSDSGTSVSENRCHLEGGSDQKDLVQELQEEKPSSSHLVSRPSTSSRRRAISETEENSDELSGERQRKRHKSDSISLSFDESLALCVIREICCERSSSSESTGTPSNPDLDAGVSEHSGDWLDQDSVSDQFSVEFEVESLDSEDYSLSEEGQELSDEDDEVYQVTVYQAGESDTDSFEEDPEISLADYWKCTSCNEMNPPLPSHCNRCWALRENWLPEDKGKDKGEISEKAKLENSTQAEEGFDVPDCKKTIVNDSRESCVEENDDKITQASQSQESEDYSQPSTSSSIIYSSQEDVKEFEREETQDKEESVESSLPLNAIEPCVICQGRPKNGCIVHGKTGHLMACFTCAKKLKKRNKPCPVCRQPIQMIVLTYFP

## CCN(CC)CCCN(Cc1cc2cc3c(cc2nc1O)OCO3)C(S)=NCc1ccco1
[1]
  AC50: > 20 µM (inactive)

## CCN1C(=O)C(=Cc2cc(C)n(C3CC3)c2C)C(=O)N(CC)C1=S
[2]
  EC50: > 99 µM (inactive)
[3]
  IC50: > 50 µM (not active)
[4]
  EC50: 44.4 µM (inactive)

## CC(C)N(C(=O)Nc1ccc2nccnc2c1)C(C)C
[3]
  IC50: > 50 µM (not active)

## COc1ccccc1OCC(=O)Nc1cc(S(=O)(=O)N2CCCCC2)ccc1N1CCCCC1
[5]
  EC50: 6.4 µM (not active)

## O=c1c2ccccc2oc2cc(C#CC3(O)CCCCC3)ccc12
[6]
  IC50: > 9.49 µM (active)

## Oc1[nH]c2ccccc2c1/C=N/c1nccs1
[7]
  IC50: 46.6 µM (not active)
[8]
  AC50: 25.1 µM (inconclusive)

## N#Cc1ccc(-c2ccc([C@@H]3[C@@H]4CN(C(=O)Nc5ccc6c(c5)OCO6)C[C@H]3N4)cc2)cc1
[9]
  AC50: 3.41 µM (active)
[10]
  AC50: 6.54 µM (active)

## COc1cccc(-c2ccc3c(c2)[C@@H]2[C@@H](CCN2C(=O)NC2CCCCC2)[C@@H](CO)N3C)c1
[11]
  AC50: 41.4 µM (active)
[9]
  AC50: 2.88 µM (active)

## C[C@@H]1CCCCO[C@@H](CN(C)Cc2ccc(Cl)c(Cl)c2)[C@@H](C)CN([C@@H](C)CO)C(=O)c2cc(NS(=O)(=O)c3cccs3)ccc2O1
[10]
  AC50: 1.54 µM (active)

## C[n+]1c2n(c3ccccc31)N=C(c1ccccc1)CS2
[12]
  AC50: 1.14 µM (active)
[13]
  EC50: > 120 µM (not active)
[14]
  EC50: > 120 µM (not active)
[15]
  EC50: 16 µM (active)
[6]
  IC50: 13.8 µM (inactive)
